Assays:
[1] = tested on: N-methyl-D-aspartate receptor (NMDAR); settings: cited from earlier work; for Limitation: toxicity / therapeutic window / Limitation: efficacy: Table 3; for Finding: schizophrenia treatment
[2] = underlying neurologic disorders, co-administration of levodopa and sapropterin; cited from earlier work
[3] = tested on: patients with schizophrenia; test: 16-week adjunctive minocycline clinical trial: SANS and PANSS; type: in vivo, human; settings: minocycline 200 mg per day added to risperidone, N = 27, week 16 value minus baseline value, mean
Text: Adult patients with schizophrenia were recruited from the 1st Affiliated Hospital of Kunming Medical University, and the Mental Health Center of Yunnan Province, China, between June 2010 and November 2011. The diagnosis of schizophrenia was made by trained clinical interviewers using the structured clinical interview for DSM-IV diagnosis (SCID). First et al., In: Structured Clinical interview for DSM-IV Axis I Disorders-Clinician Version (SCID-CV). Washington, D.C.: American Psychiatry Press. (1996). Other inclusion criteria included: (1) age 18 to 40 years old; (2) disease duration ≤5 years; (3) on stable dose of risperidone for at least 4 weeks prior to screening; (4) a stable living arrangement. Exclusion criteria were: (1) being allergic to minocycline or tetracycline; (2) a psychiatric diagnosis other than schizophrenia (determined by SCID); (3) serious, unstable medical conditions; (4) diagnosis of diabetes mellitus; (4) female patients who were planning to become pregnant, or were pregnant or lactating were also excluded from the study. The study was approved by the ethics committee of the 1st Affiliated Hospital of Kunming Medical University.
(§1) After screening, each eligible subject underwent baseline assessments including the Scale for the Assessment of Negative Symptoms (SANS), the Positive and Negative Syndrome Scale (PANSS), and blood draw for lab tests. Andreasen N C., “Negative symptoms in schizophrenia: Definition and reliability” Arch. Gen. Psychiatry 39:784-788 (1982); and Kay et al., “The positive and negative syndrome scale (PANSS) for schizophrenia” Schizophr. Bull. 13:261-276 (1987). Subjects continued to take risperidone at the same dose throughout the study, and were randomized in a 1:1 ratio to receive either minocycline (200 mg per day) or placebo for 16 weeks. At week 16, baseline assessments were repeated.
Statistical analysis was performed using SPSS (version 24.0, IBM Corp, Armonk, N.Y.). Descriptive statistics were performed to summarize demographic and clinical characteristics of the study sample. Group comparisons were performed using the independent t test for continuous variables, and the Fisher exact test or Chi-square test for categorical variables. Analysis of covariance (ANCOVA) was used to compare change scores from baseline to week 16 between the two treatment groups controlling for baseline scores and potential confounding variables. For all analyses, a p value less than 0.05 (2-tailed) was used for statistical significance.

[4] = tested on: NO metabolites (nitrites and nitrates); test: Plasma levels of NO metabolites, Griess method (minocycline trial); type: in vivo, human; settings: minocycline 200 mg per day, N = 27, fasting plasma, week 16 value minus baseline value, mean
Text: as §1
(§2) Anthropometric measures included weight, height and body mass index (BMI). Blood samples were obtained 11 h (±1 h) after the completion of the last meal the night before. Subjects were allowed to drink water during the fasting period. Laboratory assays for plasma levels of TNFα, and IL-1β were performed using the enzyme-linked immunosorbent assay (ELISA) (Bender Med Systems GmbH Campus Vienna Biocenter 2 A-1030 Vienna, Austria, Europe). Plasma levels of NO metabolites (nitrites and nitrates) were measured using the Griess method (Cortas & Wakid 1990) (Nanjing Jiancheng Bioengineering Institute, China).
(§3) Statistical analysis was performed using SPSS (version 24.0, IBM Corp, Armonk, N.Y.). […]

IL-1β = test: Plasma IL-1β by ELISA (minocycline trial); type: in vivo, human; settings: minocycline 200 mg per day, N = 27; fasting plasma; week 16 value minus baseline value; mean; listed as Minocycline
Text: as §1, §2, §3

TNFα = test: Plasma TNFα by ELISA (minocycline trial); type: in vivo, human; settings: minocycline 200 mg per day, N = 27; fasting plasma; week 16 value minus baseline value; mean; listed as Minocycline
Text: as §1, §2, §3

[5] = Body mass index (minocycline trial); type: in vivo, human; settings: minocycline 200 mg per day, N = 27; week 16 value minus baseline value; mean
Text: as §1, §2, §3

[6] = cited from earlier work
[7] = tested on: young adults with uncomplicated type 1 diabetes; settings: 7000 mg per day, one week; cited from earlier work
[8] = over-the-counter nutrition supplement; cited from earlier work

Compound: N[C@H](CO)C(=O)O [D-Serine]
- Limitation: toxicity / therapeutic window [1]: Nephrotoxicity
- Finding [1]: Improvement in overall

Compound: CNCC(=O)O [Sarcosine]
- Finding [1]: Improvment in overall

Compound: CCCCCNCC(N)=O [Milacemide]
- Finding [1]: No significant clinical benefit

Compound: N[C@@H]1CONC1=O [D-Cycloserine]
- Limitation: efficacy [1]: Decrease in efficacy over time
- Limitation: toxicity / therapeutic window [1]: Very narrow therapeutic window
- Finding [1]: Inconsistent finding; improvement

Compound: C[C@H](O)[C@H](O)[C@H]1CNc2nc(N)[nH]c(=O)c2N1 [sapropterin]
- Patients who experienced confusions, exacerbation of convulsions, over-stimulation, or irritability [2]: 3 patients

Compound: NCC(=O)O [Glycine]
- Limitation: efficacy [1]: High doses required to reach therapeutic effects
- Finding [1]: Improvement in overall

Compound: C[C@@H](N)C(=O)O [D-Alanine]
- Finding [1]: Improvement in overall

Compound: CN(C)c1ccc(O)c2c1C[C@H]1C[C@H]3[C@H](N(C)C)C(O)=C(C(N)=O)C(=O)[C@@]3(O)C(O)=C1C2=O [minocycline]
- PANSS general psychopathology score, week 16 change [3]: −14.5
- PANSS negative symptom score, week 16 change [3]: −10.8±5.9
- PANSS positive symptom score, week 16 change [3]: −8.5
- PANSS total score, week 16 change [3]: −32.9±17.1
- SANS total score, week 16 change [3]: −31.2±25.5
- PANSS negative symptom score, week 16 change ([3]; listed as Minocycline): −10.8
- PANSS total score, week 16 change ([3]; listed as Minocycline): −32.9
- SANS total score, week 16 change ([3]; listed as Minocycline): −31.2
- Nitric oxide (plasma levels of NO metabolites), week 16 change [4]: -8.19 ± 18.09 µmol/L
- Nitric oxide (plasma levels of NO metabolites), week 16 change ([4]; listed as Minocycline): -8.19 µmol/L
- IL-1β plasma level, week 16 change (IL-1β): -0.99 pg/mL
- TNF-α plasma level, week 16 change (TNFα): -0.97 pg/mL
- BMI, week 16 change [5]: 1.98 kg/m^2
- Tolerability ([6]; in humans): well tolerated in humans
- Oral bioavailability ([6]; in vivo, po): high oral bioavailability

Compound: N=C(N)NCCC[C@H](N)C(=O)O [L-arginine]
- Effect of supplementation [7]: improved oxidative stress status, increased blood flow and exercise responses
- Safety and tolerability [8]: considered safe and well tolerated in general
